In PMC6225228, “Design, Synthesis and Evaluation of N-pyrazinylbenzamides as Potential Antimycobacterial Agents” (Molecules : A Journal of Synthetic Chemistry and Natural …, 2018):
Values after ≈ are worked out from the molar mass of the structure shown. Like-named read-outs stand apart in the source and are kept apart here. Marks after values point to notes of the source that are not given here.

Tests used:
[1] = tested on: Staphylococcus aureus H 5996/08 methicillin resistant; experiment: microbe, parasite or virus in culture; format: cell-based; conditions: for MIC: Staphylococcus aureus, MRSA, read-out: MIC MRSA
Trichosporon asahii 1188 = experiment: Antifungal microdilution broth, TA; format: cell-based; conditions: read-out: MIC TA
Candida glabrata 20/I = experiment: Antifungal microdilution broth, CG; format: cell-based; conditions: Nakaseomyces glabratus, 20/I, read-out: MIC CG
[2] = tested on: M. avium ssp. avium CNCTC My 80/72 (ATCC 15769); experiment: Antimycobacterial microdilution MABA, M. avium; format: cell-based, Mycobacterium avium; conditions: for MIC: Mycobacterium avium
[3] = tested on: Candida albicans ATCC 44859; experiment: Antifungal microdilution broth, CA; format: cell-based; conditions: Candida albicans, read-out: MIC CA
[4] = tested on: Staphylococcus epidermidis H 6966/08; experiment: Antibacterial microdilution broth, SE; format: cell-based; conditions: read-out: MIC SE
[5] = tested on: Mycobacterium smegmatis CCM 4622 (ATCC 607); experiment: Antimycobacterial microdilution, M. smegmatis; format: cell-based; conditions: Mycolicibacterium smegmatis, read-out: M. smeg. ATCC 607 MIC
[6] = tested on: Staphylococcus aureus CCM 4516/08; experiment: Antibacterial microdilution broth, SA; format: cell-based
Candida tropicalis 156 = experiment: Antifungal microdilution broth, CT; format: cell-based; conditions: read-out: MIC CT
[7] = tested on: Escherichia coli CCM 4517; experiment: Antibacterial microdilution broth, EC; format: cell-based; conditions: Escherichia coli, read-out: MIC EC
[8] = tested on: Lichtheimia corymbifera 272; experiment: Antifungal microdilution broth, LC; format: cell-based; conditions: read-out: MIC LC
[9] = tested on: Mycobacterium tuberculosis H37Rv CNCTC My 331/88 (ATCC 27294); experiment: Antimycobacterial microdilution MABA, M. tuberculosis; format: cell-based; conditions: for MIC: Mycobacterium tuberculosis
[10] = tested on: Pseudomonas aeruginosa CCM 1961; experiment: Antibacterial microdilution broth, PA; format: cell-based; conditions: Pseudomonas aeruginosa, read-out: MIC PA
[11] = tested on: Trichophyton interdigitale 445; experiment: Antifungal microdilution broth, TI; format: cell-based; conditions: read-out: MIC TI
[12] = tested on: M. kansasii CNCTC My 235/80 (ATCC 12478); experiment: Antimycobacterial microdilution MABA, M. kansasii; format: cell-based, Mycobacterium kansasii; conditions: for MIC: Mycobacterium kansasii
[13] = tested on: Enterococcus sp. J 14365/08; experiment: Antibacterial microdilution broth, EF; format: cell-based; conditions: Enterococcus, read-out: MIC EF
[14] = tested on: Aspergillus fumigatus 231; experiment: Antifungal microdilution broth, AF; format: cell-based; conditions: read-out: MIC AF
Candida krusei E28 = experiment: Antifungal microdilution broth, CK; format: cell-based; conditions: Pichia kudriavzevii, read-out: MIC CK
[15] = Trichosporon asahii, 1188, 24 h
[16] = Trichosporon asahii, 1188, 48 h
[17] = ATCC15769, pH 6.6, read-out: M. avium ATCC 15769 MIC
[18] = Staphylococcus epidermidis, H6966/08, 24 h
[19] = Staphylococcus epidermidis, H6966/08, 48 h
[20] = Staphylococcus aureus, CCM4516, 24 h, read-out: MIC SA, 24 h
[21] = Staphylococcus aureus, CCM4516, 48 h, read-out: MIC SA, 48 h
[22] = Lichtheimia corymbifera, 272, 24 h
[23] = Lichtheimia corymbifera, 272, 48 h
[24] = Middlebrook 7H9 with OADC growth supplement, pH = 6.6, MABA
[25] = read-out: Mtb H37Rv ATCC 27294 MIC, Middlebrook 7H9 with OADC growth supplement, pH = 6.6, MABA
[26] = Trichophyton interdigitale, 445, 72 h
[27] = Trichophyton interdigitale, 445, 120 h
[28] = ATCC12478, pH 6.6, read-out: M. kans. ATCC 12478 MIC, Middlebrook 7H9 with OADC, pH 6.6, MABA
[29] = Aspergillus fumigatus, 231, 24 h
[30] = Aspergillus fumigatus, 231, 48 h
[31] = Middlebrook 7H9 with OADC, pH 6.6, MABA
[32] = ATCC15769, Middlebrook 7H9 with OADC, pH 6.6, MABA, read-out: M. avium ATCC 15769 MIC
[33] = Middlebrook 7H9 with OADC, resazurin
[34] = Middlebrook 7H9 with OADC growth supplement, pH = 6.6, MABA, read-out: Mtb H37Rv ATCC 27294 MIC
[35] = ATCC12478, Middlebrook 7H9 with OADC, pH 6.6, MABA, read-out: M. kans. ATCC 12478 MIC

O=C(Nc1cnc(Cl)cn1)c1ccccc1Cl [Compound 2j]
MIC MRSA ([1]; 24 h): >500 µM | MIC MRSA ([1]; 48 h): >500 µM | MIC ([1]; 24 h): > 500 µM | MIC ([1]; 48 h): > 500 µM | MIC (Trichosporon asahii 1188; [15]): > 500 µM | MIC (Trichosporon asahii 1188; [16]): > 500 µM | MIC (Candida glabrata 20/I; 24 h): > 500 µM | MIC (Candida glabrata 20/I; 48 h): > 500 µM | MIC [2, 17]: > 100 µg/mL | MIC ([3]; ATCC44859, 24 h): > 500 µM | MIC ([3]; ATCC44859, 48 h): > 500 µM | MIC ([4]; 24 h): >500 µM | MIC ([4]; 48 h): >500 µM | MIC [4, 18]: > 500 µM | MIC [4, 19]: > 500 µM | MIC [5]: ≥ 500 µg/mL | MIC ([6]; 24 h, read-out: MIC SA): 62.50 µM (≈ 16.8 µg/mL) | MIC ([6]; 48 h, read-out: MIC SA): 62.50 µM (≈ 16.8 µg/mL) | MIC [6, 20]: 62.5 µM (≈ 16.8 µg/mL) | MIC [6, 21]: 62.5 µM (≈ 16.8 µg/mL) | MIC (Candida tropicalis 156; Candida tropicalis, 156, 24 h): > 500 µM | MIC (Candida tropicalis 156; Candida tropicalis, 156, 48 h): > 500 µM | MIC ([7]; CCM4517, 24 h): > 500 µM | MIC ([7]; CCM4517, 48 h): > 500 µM | MIC [8, 22]: > 500 µM | MIC [8, 23]: > 500 µM | Mtb H37Rv ATCC 27294 MIC [9, 24]: >100 µg/mL | MIC [9, 25]: > 100 µg/mL | MIC ([10]; CCM1961, 72 h): > 500 µM | MIC ([10]; CCM1961, 120 h): > 500 µM | MIC [11, 26]: > 500 µM | MIC [11, 27]: > 500 µM | MIC [12, 28]: > 100 µg/mL | MIC ([13]; SP.J14365/08, 24 h): > 500 µM | MIC ([13]; SP.J14365/08, 48 h): > 500 µM | MIC [14, 29]: > 500 µM | MIC [14, 30]: > 500 µM | MIC (Candida krusei E28; E28, 24 h): > 500 µM | MIC (Candida krusei E28; E28, 48 h): > 500 µM

O=C(Nc1cnc(Cl)cn1)c1cccc(C(F)(F)F)c1 [Compound 2n]
melting point: 155.4 to 156.4 °C | M. avium ATCC 15769 MIC [2, 31]: >100 µg/mL | MIC [2, 32]: > 100 µg/mL | MIC [5, 33]: ≥ 500 µg/mL | MIC [9, 34]: 25 µg/mL (≈ 82.9 µM) | M. kans. ATCC 12478 MIC [12, 31]: >100 µg/mL | MIC [12, 35]: > 100 µg/mL

O=C(Nc1cncc(Cl)n1)c1ccccc1 [Compound 3a]
melting point: 152.8 to 153.6 °C | MIC [2, 32]: > 100 µg/mL | MIC [5, 33]: ≥ 500 µg/mL | Mtb H37Rv ATCC 27294 MIC [9, 24]: >100 µg/mL | MIC [9, 34]: > 100 µg/mL | MIC [12, 35]: > 100 µg/mL

COc1cccc(C(=O)Nc2cncc(Cl)n2)c1 [Compound 3f]
melting point: 131.6 to 132.7 °C | M. avium ATCC 15769 MIC [2, 31]: 100 ^c µg/mL | MIC [2, 32]: 100 µg/mL (≈ 379 µM) | MIC [5, 33]: ≥ 500 µg/mL | Mtb H37Rv ATCC 27294 MIC [9, 24]: 50 µg/mL | MIC [9, 34]: 50 µg/mL (≈ 190 µM) | M. kans. ATCC 12478 MIC [12, 31]: 100 ^c µg/mL | MIC [12, 35]: 100 µg/mL (≈ 379 µM)

O=C(Nc1cncc(Cl)n1)c1ccccc1Cl [Compound 3j]
MIC ([1]; 24 h): > 500 µM | MIC ([1]; 48 h): > 500 µM | MIC (Trichosporon asahii 1188; [15]): > 500 µM | MIC (Trichosporon asahii 1188; [16]): > 500 µM | MIC (Candida glabrata 20/I; 24 h): > 500 µM | MIC (Candida glabrata 20/I; 48 h): > 500 µM | MIC [2, 17]: > 100 µg/mL | MIC ([3]; ATCC44859, 24 h): > 500 µM | MIC ([3]; ATCC44859, 48 h): > 500 µM | MIC [4, 18]: > 500 µM | MIC [4, 19]: > 500 µM | MIC [5]: ≥ 500 µg/mL | MIC [6, 20]: > 500 µM | MIC [6, 21]: > 500 µM | MIC (Candida tropicalis 156; Candida tropicalis, 156, 24 h): > 500 µM | MIC (Candida tropicalis 156; Candida tropicalis, 156, 48 h): > 500 µM | MIC ([7]; CCM4517, 24 h): > 500 µM | MIC ([7]; CCM4517, 48 h): > 500 µM | MIC [8, 22]: > 500 µM | MIC [8, 23]: > 500 µM | Mtb H37Rv ATCC 27294 MIC [9, 24]: >100 µg/mL | MIC [9, 25]: > 100 µg/mL | MIC ([10]; CCM1961, 72 h): > 500 µM | MIC ([10]; CCM1961, 120 h): > 500 µM | MIC [11, 26]: > 500 µM | MIC [11, 27]: > 500 µM | MIC [12, 28]: > 100 µg/mL | MIC ([13]; SP.J14365/08, 24 h): > 500 µM | MIC ([13]; SP.J14365/08, 48 h): > 500 µM | MIC [14, 29]: > 500 µM | MIC [14, 30]: > 500 µM | MIC (Candida krusei E28; E28, 24 h): > 500 µM | MIC (Candida krusei E28; E28, 48 h): > 500 µM
